Test results from patent publication EP4667483A1, “HUMAN TRANSFERRIN RECEPTOR-BINDING PEPTIDE” (JCR Pharmaceuticals Co., Ltd., priority 2023, dated 2024).
pKd: −log10 of the molar value. Numbered stars: 1 amine (or outer) side, 2 acyl side, 3 side chain; on linkers, the order of the positions; unused ones are H or OH. Bridge positions count the residues as written; N and C are the ends. Square brackets hold non-standard residues; d marks the D form. Side chains are listed from the residue outwards. Peptide text beside a SMILES is read from it. * marks the point of attachment. Ala(imidazo(1,2-a)pyr3yl) = N[C@@H](Cc1cnc2ccccn12)C(=O)O; Trp(1-CH2COOH) = N[C@@H](Cc1cn(CC(=O)O)c2ccccc12)C(=O)O; CH2CON(CH2CH2)2NCH2COOH = O=C(O)CN1CCN(C(=O)C*)CC1; NMePhe(4-COOH) = CN[C@@H](Cc1ccc(C(=O)O)cc1)C(=O)O; X1 = O=C([C@H](Cc1cccc(C(=O)[*:3])c1)N[*:1])[*:2]; Nle(6-morpholino) = N[C@@H](CCCCN1CCOCC1)C(=O)O; Trp(7-aza) = N[C@@H](Cc1c[nH]c2ncccc12)C(=O)O; NMePhe(3-Cl) = CN[C@@H](Cc1cccc(Cl)c1)C(=O)O; Piperazinyl(4-CH2COOH) = O=C(O)CN1CCN(*)CC1; 3Pal(6-NH2) = Nc1ccc(C[C@H](N)C(=O)O)cn1; NMeW = CN[C@@H](Cc1c[nH]c2ccccc12)C(=O)O; PEG8 = NCCOCCOCCOCCOCCOCCOCCOCCOCCC(=O)O; Lys(N3) = [N-]=[N+]=NCCCC[C@H](N)C(=O)O; NMeY = CN[C@@H](Cc1ccc(O)cc1)C(=O)O; Nva(3-Et) = CCC(CC)[C@H](N)C(=O)O; NMeF = CN[C@@H](Cc1ccccc1)C(=O)O; 4Pal = N[C@@H](Cc1ccncc1)C(=O)O; PEG4 = NCCOCCOCCOCCOCCC(=O)O; Carboxymethyl = O=C(O)C*; CO = O=C([*:1])[*:2]

Experiments:
[1] = target: T1, human transferrin receptor (hTfR) (Homo sapiens, UniProt P02786); test: SPR measurement under pH 7.4 conditions (Biacore T200, CM3 chip, hTfR captured by His Tag antibody); format: binding; settings: read-out: hTfR SPR pH7.4 KD
[2] = target: T1, human transferrin receptor (hTfR); test: SPR measurement under pH 6.0 conditions (Biacore T200, NTA chip, immobilized hTfR); format: binding; settings: read-out: hTfR SPR pH6.0 KD
[3] = SPR, pH 7.4, peptide with the linker named in the table
[4] = SPR, pH 6.0, peptide with the linker named in the table

T1 sequence (P02786 whole entry): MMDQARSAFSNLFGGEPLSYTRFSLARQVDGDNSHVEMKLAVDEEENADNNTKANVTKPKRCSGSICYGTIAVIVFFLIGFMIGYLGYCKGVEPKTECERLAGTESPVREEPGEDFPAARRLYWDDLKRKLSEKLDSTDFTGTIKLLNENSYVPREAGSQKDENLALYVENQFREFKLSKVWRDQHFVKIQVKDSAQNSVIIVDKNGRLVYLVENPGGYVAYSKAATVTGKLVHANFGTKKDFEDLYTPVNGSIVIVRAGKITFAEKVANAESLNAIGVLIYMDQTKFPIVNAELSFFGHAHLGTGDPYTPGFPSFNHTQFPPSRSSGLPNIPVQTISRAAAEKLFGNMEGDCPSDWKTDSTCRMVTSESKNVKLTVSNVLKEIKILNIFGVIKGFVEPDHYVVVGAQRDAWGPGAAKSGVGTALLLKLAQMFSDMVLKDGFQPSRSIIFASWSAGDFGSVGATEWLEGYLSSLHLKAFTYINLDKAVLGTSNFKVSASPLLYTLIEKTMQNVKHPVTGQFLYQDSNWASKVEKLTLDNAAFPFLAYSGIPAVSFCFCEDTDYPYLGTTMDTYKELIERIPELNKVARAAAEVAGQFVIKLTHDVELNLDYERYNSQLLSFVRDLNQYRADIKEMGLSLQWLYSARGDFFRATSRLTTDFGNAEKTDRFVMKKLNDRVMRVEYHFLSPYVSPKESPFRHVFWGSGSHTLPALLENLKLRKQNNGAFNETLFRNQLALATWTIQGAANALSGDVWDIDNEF

Structure (SMILES) | pKd [1, 3] | pKd [2, 4] | pKd ([1]; pH 7.4, single-cycle kinetics) | pKd ([2]; pH 6.0, single-cycle kinetics) | further results
CC[C@H](C)[C@@H]1NC(=O)[C@H](Cc2ccc(OCC(=O)O)cc2)NC(=O)[C@H](Cc2ccc(O)cc2)NC(=O)[C@H](CC(N)=O)NC(=O)[C@H](Cc2c[nH]c3ncccc23)NC(=O)[C@H](C(C)C)NC(=O)[C@H](Cc2cccc(Cl)c2)N(C)C(=O)[C@H](C(C)C)NC(=O)[C@H](C)NC(=O)CSC[C@@H](C(=O)NCCOCCOCCOCCOCCC(N)=O)NC(=O)[C@H](Cc2ccc(O)cc2)N(C)C(=O)[C@H](Cc2cccc(C(=O)NCCOCCOCCOCCOCCC(=O)O)c2)NC(=O)[C@H](CCCNC(=N)N)NC(=O)[C@H](CCC(N)=O)NC(=O)[C@H]([C@@H](C)CC)NC1=O [compound 144] | 8.45 | 7.76 |  |  | 
CC[C@H](C)[C@@H]1NC(=O)[C@H](Cc2ccc(OC)cc2)NC(=O)[C@H](Cc2ccc(N)nc2)NC(=O)[C@H](CC(N)=O)NC(=O)[C@H](Cc2c[nH]c3ncccc23)NC(=O)[C@H](C(C)C)NC(=O)[C@H](Cc2cccc(Cl)c2)N(C)C(=O)[C@H](C(C)C)NC(=O)[C@H](C)NC(=O)CSC[C@@H](C(=O)NCCOCCOCCOCCOCCC(N)=O)NC(=O)[C@H](Cc2ccc(O)cc2)N(C)C(=O)[C@H](Cc2ccncc2)NC(=O)[C@H](CCCNC(=N)N)NC(=O)[C@H](CCC(=O)NC[C@H](O)[C@@H](O)[C@H](O)[C@H](O)CO)NC(=O)[C@H]([C@@H](C)CC)NC1=O [compound 10] |  |  | 8.60 | 7.44 | 
CCC(CC)[C@@H]1NC(=O)[C@H](Cc2ccc(OC)cc2)NC(=O)[C@H](Cc2ccc(O)cc2)NC(=O)[C@H](CC(N)=O)NC(=O)[C@H](Cc2c[nH]c3ccccc23)NC(=O)[C@H](C(C)C)NC(=O)[C@H](Cc2cccc(Cl)c2)N(C)C(=O)[C@H](C(C)C)NC(=O)[C@H](C)NC(=O)CSC[C@@H](C(=O)NCCOCCOCCOCCOCCC(N)=O)NC(=O)[C@H](Cc2ccc(C(=O)O)cc2)N(C)C(=O)[C@H](Cc2cccc(C(=O)NCCOCCOCCOCCOCCC(=O)O)c2)NC(=O)[C@H](CCCNC(=N)N)NC(=O)[C@H](CCC(N)=O)NC(=O)[C@H]([C@@H](C)CC)NC1=O [compound 111] ({CH2CO}-AV[NMePhe(3-Cl)]VWNYY(Me)[Nva(3-Et)]IQR[X1](PEG4)[NMePhe(4-COOH)]C[PEG4]-NH2; thioether N-15) | 8.69 | 8.46 |  |  | 
CC[C@H](C)[C@@H]1NC(=O)[C@H](Cc2ccc(OC)cc2)NC(=O)[C@H](Cc2ccc(N)nc2)NC(=O)[C@H](CC(N)=O)NC(=O)[C@H](Cc2cnc3ccccn23)NC(=O)[C@H](C(C)C)NC(=O)[C@H](Cc2cccc(Cl)c2)N(C)C(=O)[C@H](C(C)C)NC(=O)[C@H](C)NC(=O)CSC[C@@H](C(=O)NCCOCCOCCOCCOCCC(N)=O)NC(=O)[C@H](Cc2ccc(O)cc2)N(C)C(=O)[C@H](Cc2ccncc2)NC(=O)[C@H](CCCNC(=N)N)NC(=O)[C@H](CCCNC(=N)N)NC(=O)[C@H]([C@@H](C)CC)NC1=O [compound 65] ({CH2CO}-AV[NMePhe(3-Cl)]V[Ala(imidazo(1,2-a)pyr3yl)]N[3Pal(6-NH2)]Y(Me)IIRR[4Pal][NMeY]C[PEG4]-NH2; thioether N-15) |  |  | 8.27 | 7.25 | 
CC[C@H](C)[C@@H]1NC(=O)[C@H](Cc2ccc(OC)cc2)NC(=O)[C@H](Cc2ccc(O)cc2)NC(=O)[C@H](CC(N)=O)NC(=O)[C@H](Cc2c[nH]c3ncccc23)NC(=O)[C@H](C(C)C)NC(=O)[C@H](Cc2cccc(Cl)c2)N(C)C(=O)[C@H](C(C)C)NC(=O)[C@H](C)NC(=O)CSC[C@@H](C(=O)NCCOCCOCCOCCOCCC(N)=O)NC(=O)[C@H](Cc2ccc(O)cc2)N(C)C(=O)[C@H](CCC(=O)NCCOCCOCCOCCOCCOCCOCCOCCOCCC(=O)O)NC(=O)[C@H](CCCNC(=N)N)NC(=O)[C@H](CCC(=O)NCCOCCOCCOCCOCCOCCOCCOCCOCCC(=O)O)NC(=O)[C@H]([C@@H](C)CC)NC1=O [compound 141] ({CH2CO}-AV[NMePhe(3-Cl)]V[Trp(7-aza)]NYY(Me)IIE(PEG8)RE(PEG8)[NMeY]C[PEG4]-NH2; thioether N-15) | 6.85 | 6.67 |  |  | 
CC[C@H](C)[C@@H]1NC(=O)[C@H](Cc2ccc(OCC(=O)N3CCN(CC(=O)O)CC3)cc2)NC(=O)[C@H](Cc2ccc(O)cc2)NC(=O)[C@H](CC(N)=O)NC(=O)[C@H](Cc2cn(CC(=O)O)c3ccccc23)NC(=O)[C@H](C(C)C)NC(=O)[C@H](Cc2cccc(Cl)c2)N(C)C(=O)[C@H](C(C)C)NC(=O)[C@H](C)NC(=O)CSC[C@@H](C(=O)NCCOCCOCCOCCOCCC(N)=O)NC(=O)[C@H](Cc2ccc(O)cc2)N(C)C(=O)[C@H](Cc2ccncc2)NC(=O)[C@H](CCCCN2CCOCC2)NC(=O)[C@H](CCCCNC(=O)N2CCN(CC(=O)O)CC2)NC(=O)[C@H]([C@@H](C)CC)NC1=O [compound 33] ({CH2CO}-AV[NMePhe(3-Cl)]V[Trp(1-CH2COOH)]NYY(CH2CON(CH2CH2)2NCH2COOH)IIK([CO-Piperazinyl(4-CH2COOH)])[Nle(6-morpholino)][4Pal][NMeY]C[PEG4]-NH2; thioether N-15) |  |  | 8.07 | 7.66 | 
CC[C@H](C)[C@@H]1NC(=O)[C@H](Cc2ccc(OC)cc2)NC(=O)[C@H](Cc2ccc(N)nc2)NC(=O)[C@H](CC(N)=O)NC(=O)[C@H](Cc2c[nH]c3ncccc23)NC(=O)[C@H](C(C)C)NC(=O)[C@H](Cc2cccc(Cl)c2)N(C)C(=O)[C@H](C(C)C)NC(=O)[C@H](C)NC(=O)CSC[C@@H](C(=O)NCCOCCOCCOCCOCCC(N)=O)NC(=O)[C@H](Cc2ccc(O)cc2)N(C)C(=O)[C@H](Cc2ccncc2)NC(=O)[C@H](CCCNC(=N)N)NC(=O)[C@H](CCCNC(=N)N)NC(=O)[C@H]([C@@H](C)CC)NC1=O [compound 1] |  |  | 8.81 | 7.74 | 
CC[C@H](C)[C@@H]1NC(=O)[C@H](Cc2ccc(OC)cc2)NC(=O)[C@H](Cc2ccc(N)nc2)NC(=O)[C@H](CC(N)=O)NC(=O)[C@H](Cc2c[nH]c3ccccc23)NC(=O)[C@H](C(C)C)NC(=O)[C@H](Cc2cccc(Cl)c2)N(C)C(=O)[C@H](C(C)C)NC(=O)[C@H](C)NC(=O)CSC[C@@H](C(=O)NCCOCCOCCOCCOCCC(N)=O)NC(=O)[C@H](Cc2ccc(C(=O)O)cc2)N(C)C(=O)[C@H](Cc2cccc(C(=O)NCCOCCOCCOCCOCCC(=O)O)c2)NC(=O)[C@H](CCCNC(=N)N)NC(=O)[C@H](CCC(N)=O)NC(=O)[C@H]([C@@H](C)CC)NC1=O [compound 115] ({CH2CO}-AV[NMePhe(3-Cl)]VWN[3Pal(6-NH2)]Y(Me)IIQR[X1](PEG4)[NMePhe(4-COOH)]C[PEG4]-NH2; thioether N-15) | 8.74 | 7.90 |  |  | 
CCC(CC)[C@@H]1NC(=O)[C@H](Cc2ccc(OCC(=O)O)cc2)NC(=O)[C@H](Cc2ccc(N)nc2)NC(=O)[C@H](CC(N)=O)NC(=O)[C@H](Cc2c[nH]c3ncccc23)NC(=O)[C@H](C(C)C)NC(=O)[C@H](Cc2cccc(Cl)c2)N(C)C(=O)[C@H](C(C)C)NC(=O)[C@H](C)NC(=O)CSC[C@@H](C(=O)NCCOCCOCCOCCOCCC(N)=O)NC(=O)[C@H](Cc2ccc(O)cc2)N(C)C(=O)[C@H](Cc2cccc(C(=O)NCCOCCOCCOCCOCCC(=O)O)c2)NC(=O)[C@H](CCCNC(=N)N)NC(=O)[C@H](CCC(N)=O)NC(=O)[C@H]([C@@H](C)CC)NC1=O [compound 44] ({CH2CO}-AV[NMePhe(3-Cl)]V[Trp(7-aza)]N[3Pal(6-NH2)]Y(Carboxymethyl)[Nva(3-Et)]IQR[X1](PEG4)[NMeY]C[PEG4]-NH2; thioether N-15) |  |  | 7.44 | 6.47 | 
CCC(CC)[C@@H]1NC(=O)[C@H](Cc2ccc(O)cc2)NC(=O)[C@H](Cc2ccc(O)cc2)NC(=O)[C@H](CC(N)=O)NC(=O)[C@H](Cc2c[nH]c3ccccc23)N(C)C(=O)[C@H](C(C)C)NC(=O)[C@H](Cc2ccccc2)N(C)C(=O)[C@H](C(C)C)NC(=O)[C@H](C)NC(=O)CSC[C@@H](C(=O)NCC(=O)N[C@@H](CCCCN=[N+]=[N-])C(N)=O)NC(=O)[C@H](Cc2ccc(C(=O)O)cc2)N(C)C(=O)[C@H](Cc2cccc(C(=O)NCCOCCOCCOCCOCCC(=O)O)c2)NC(=O)[C@H](CCCNC(=N)N)NC(=O)[C@H](CCCCN)NC(=O)[C@H]([C@@H](C)CC)NC1=O [compound 194] ({CH2CO}-AV[NMeF]V[NMeW]NYY[Nva(3-Et)]IKR[X1](PEG4)[NMePhe(4-COOH)]CG[Lys(N3)]-NH2; thioether N-15) |  |  |  |  | pKd ([1]; SPR, pH 7.4, Table 1-3-2-2): 8.34; pKd ([2]; SPR, pH 6.0, Table 1-3-2-2): 7.83
CC[C@H](C)[C@@H]1NC(=O)[C@H](Cc2ccc(OCC(=O)N3CCN(CC(=O)O)CC3)cc2)NC(=O)[C@H](Cc2ccc(O)cc2)NC(=O)[C@H](CC(N)=O)NC(=O)[C@H](Cc2cn(CC(=O)O)c3ccccc23)NC(=O)[C@H](C(C)C)NC(=O)[C@H](Cc2cccc(Cl)c2)N(C)C(=O)[C@H](C(C)C)NC(=O)[C@H](C)NC(=O)CSC[C@@H](C(=O)NCCOCCOCCOCCOCCC(N)=O)NC(=O)[C@H](Cc2ccc(O)cc2)N(C)C(=O)[C@H](Cc2cccc(C(=O)O)c2)NC(=O)[C@H](CCCNC(=N)N)NC(=O)[C@H](CCC(N)=O)NC(=O)[C@H]([C@@H](C)CC)NC1=O [compound 36] |  |  | 8.61 | 7.36 | 
CC[C@H](C)[C@@H]1NC(=O)[C@H](Cc2ccc(OCC(=O)O)cc2)NC(=O)[C@H](Cc2ccc(N)nc2)NC(=O)[C@H](CC(N)=O)NC(=O)[C@H](Cc2c[nH]c3ncccc23)NC(=O)[C@H](C(C)C)NC(=O)[C@H](Cc2cccc(Cl)c2)N(C)C(=O)[C@H](C(C)C)NC(=O)[C@H](C)NC(=O)CSC[C@@H](C(=O)NCCOCCOCCOCCOCCC(N)=O)NC(=O)[C@H](Cc2ccc(O)cc2)N(C)C(=O)[C@H](Cc2ccncc2)NC(=O)[C@H](CCCNC(=N)N)NC(=O)[C@H](CCCCNC(=O)N2CCN(CC(=O)O)CC2)NC(=O)[C@H]([C@@H](C)CC)NC1=O [compound 14] ({CH2CO}-AV[NMePhe(3-Cl)]V[Trp(7-aza)]N[3Pal(6-NH2)]Y(Carboxymethyl)IIK([CO-Piperazinyl(4-CH2COOH)])R[4Pal][NMeY]C[PEG4]-NH2; thioether N-15) |  |  | 7.51 | 6.97 | 
